Data as given in BindingDB's records for PubMed 2017157 (Medical Research Service, 1991).

Target: D(2) dopamine receptor (Mus musculus, UniProt P61168)
Sequence (P61168 whole entry): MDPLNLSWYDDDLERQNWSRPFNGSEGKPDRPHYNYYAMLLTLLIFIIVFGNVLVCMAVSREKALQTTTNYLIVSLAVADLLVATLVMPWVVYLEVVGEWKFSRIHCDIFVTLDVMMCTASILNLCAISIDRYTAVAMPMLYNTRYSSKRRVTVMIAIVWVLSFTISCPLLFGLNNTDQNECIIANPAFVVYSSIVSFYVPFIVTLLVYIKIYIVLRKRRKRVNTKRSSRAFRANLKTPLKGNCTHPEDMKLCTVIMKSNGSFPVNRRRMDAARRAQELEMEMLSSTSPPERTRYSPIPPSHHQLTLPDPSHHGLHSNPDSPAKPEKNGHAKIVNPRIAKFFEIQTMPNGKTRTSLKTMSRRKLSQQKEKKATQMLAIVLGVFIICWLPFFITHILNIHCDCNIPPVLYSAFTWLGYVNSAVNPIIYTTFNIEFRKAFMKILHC

Compared with CCN1CCC[C@H]1CNC(=O)c1cc(I)cc(OC)c1OC, CCN1CCCC1CNC(=O)c1cc(S(N)(=O)=O)ccc1OC (configuration not stated) [N-[(1-ethylpyrrolidin-2-yl)methyl]-2-methoxy-5-sulfamoylbenzamide] is 290-fold higher in Ki: 0.05 nM for the first, 14.4 nM for the second.

Going from CC(C)C[C@H]1C(=O)N2CCC[C@H]2[C@]2(O)O[C@](NC(=O)[C@@H]3C=C4c5cccc6[nH]c(Br)c(c56)C[C@H]4N(C)C3)(C(C)C)C(=O)N12 [Bromocriptine+ (GTP+)] to CCCN1CCCC(c2cccc(O)c2)C1 (configuration not stated) [CAS_85976-54-1], the Ki rises from 0.69 nM to 5620 nM (8100-fold). The first binds more tightly here.

First: OCCN1CCN(CC/C=C2/c3ccccc3Sc3ccc(C(F)(F)F)cc32)CC1 [(cis) 2-{4-[3-(2-Trifluoromethyl-thioxanthen-9-ylidene)-propyl]-piperazin-1-yl}-ethanol(Flupentixol)]
Second: O=c1[nH]c2ccccc2n1C1CCN(CCCC(c2ccc(F)cc2)c2ccc(F)cc2)CC1 [1-(1-(4,4-bis(4-fluorophenyl)butyl)piperidin-4-yl)-1H-benzo[d]imidazol-2(3H)-one]
The Ki of the first is 2.5-fold higher: 0.48 nM for the first, 0.19 nM for the second. The second binds more tightly here.

O=C(O)c1ccccc1C(=O)Nc1cccc2ccccc12 [NPA,(+)] showed a Ki of 7.07 nM.
